The text below walks through data of patent US20260124222A1, “ISOTHIAZOLYLCARBOXAMIDE COMPOUNDS AND THEIR USE IN THERAPY” (HOTSPOT THERAPEUTICS, INC., priority 2022, published 2026).

The target in this test is T1, Avi-tagged FL MALT-1 (Homo sapiens, UniProt Q9UDY8).
T1 construct: Avi-tagged FL MALT-1 (Pharmaron, stored at −70° C.); Avi-tag; purchased Pharmaron
T1 sequence (Q9UDY8 1-824): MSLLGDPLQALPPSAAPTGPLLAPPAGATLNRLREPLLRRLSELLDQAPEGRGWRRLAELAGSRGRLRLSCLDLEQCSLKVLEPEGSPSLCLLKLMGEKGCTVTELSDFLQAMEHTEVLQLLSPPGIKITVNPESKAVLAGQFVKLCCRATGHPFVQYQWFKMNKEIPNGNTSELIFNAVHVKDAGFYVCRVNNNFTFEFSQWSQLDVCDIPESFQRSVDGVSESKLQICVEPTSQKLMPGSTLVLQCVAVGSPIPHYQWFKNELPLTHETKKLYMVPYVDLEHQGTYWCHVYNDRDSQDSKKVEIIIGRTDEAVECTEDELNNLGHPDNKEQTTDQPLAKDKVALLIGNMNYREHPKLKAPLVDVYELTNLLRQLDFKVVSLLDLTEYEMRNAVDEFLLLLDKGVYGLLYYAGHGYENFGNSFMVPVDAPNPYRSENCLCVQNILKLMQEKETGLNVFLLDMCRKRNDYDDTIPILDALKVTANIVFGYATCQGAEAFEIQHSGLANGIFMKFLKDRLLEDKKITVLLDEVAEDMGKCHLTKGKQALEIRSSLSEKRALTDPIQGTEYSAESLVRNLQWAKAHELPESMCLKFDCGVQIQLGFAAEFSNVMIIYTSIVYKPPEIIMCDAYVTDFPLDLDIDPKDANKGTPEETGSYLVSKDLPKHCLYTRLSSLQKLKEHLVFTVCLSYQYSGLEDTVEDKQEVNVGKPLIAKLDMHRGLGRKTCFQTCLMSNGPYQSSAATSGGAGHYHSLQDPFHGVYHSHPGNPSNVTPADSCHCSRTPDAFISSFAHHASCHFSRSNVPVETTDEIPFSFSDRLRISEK
Nature of the test: MALT-1 Fluorogenic Peptide Cleavage Assay (MALT1 inhibition assay). It counts as biochemical. The settings on record: Ac-LRSR-AMC peptide substrate; 30 min pre-incubation, 90 min reaction at room temperature; fluorescence. As for the experimental part:
Inhibition of MALT1 activity by a small molecule was evaluated using MALT-1 Fluorogenic Peptide Cleavage Assay. The assay utilizes a quenched AMC-labelled peptide that contains the MALT-1 recognition sequence and cleavage site (LRSR). MALT-1 mediated cleavage of the peptide relieves the quenching and leads to an increase in fluorescence at excitation (342 nm) and emission (441 nm).
The following reagents were obtained commercially and used to prepare standard reagent formulations as further described below: N-2-hydroxyethylpiperazine-N-2-ethane sulfonic acid (HEPES) (1 M, pH 7.5, stored at 4° C.), sodium citrate (stored at RT), tris(2-carboxyethyl)phosphine hydrochloride (T-CEP) (500 mM, stored at −20° C.), ethylenediaminetetraacetic acid (EDTA) (500 mM, stored at RT), dimethylsulfoxide (DMSO, stored at RT), 3-[(3-cholamidopropyl)dimethylammonio]-1-propane sulphate (CHAPS) (stored at RT), dimethylsulfoxide (DMSO), DMSO (Fisher Scientific, stored at RT), Avi-tagged FL MALT-1 (Pharmaron, stored at −70° C.), Ac-LRSR-AMC Peptide (SM Biochemicals, stored at −20° C.), and ultrapure water (MILLI-Q®).
The standard reagent formulations used in this assay were prepared and stored as follows. A 1.1 M solution of sodium citrate (161.3 g, 500 mL) was prepared and stored at room temperature. A 10% (w/v) CHAPS solution (2.0 g, 20 mL) was prepared and stored at 4° C. A 500 mM HEPES solution having pH of 6.89 was prepared from 200 mL of a 1 M HEPES solution having a pH of 7.5 using concentrated hydrochloric acid and brought to a final volume of 400 mL with MILLI-Q© H2O. The substrate, 10 mM Ac-LRSR-AMC Peptide, was prepared (10 mg, 1.370 mL DMSO) and stored at −20° C.
Compounds were plated to provide a 2% DMSO final concentration using a ProxiPlate-384 Plus F Black 384-shallow well microplate. The assay-ready plates were equilibrated to room temperature. A reaction buffer (30 mL total volume) was prepared by combining HEPES (pH 6.89, 25 mM, 1.5 mL), sodium citrate (660 mM, 18.0 mL), T-CEP (1 mM, 0.06 mL), EDTA (0.1 mM, 0.06 mL), CHAPS (0.05%, 0.15 mL), DMSO (2%, 0.6 mL), and MILLI-Q® H2O (10.23 mL; 9.63 mL when backfilled to 2% DMSO) followed by thorough mixing.
MALT-1 was thawed and kept on ice. Peptide substrate was thawed on the bench under ambient conditions. A MALT-1 enzyme working stock was prepared from Avi-tagged FL MALT-1 (40 nM in a prepared reagent volume of […]) and the reaction buffer (13.0 mL). MALT1 working stock (5 μL) was added to each well of the microplate. MALT-1 was pre-incubated with compounds for 30 minutes at room temperature.
Two substrate working stocks (Km and 10×Km) were prepared. The 1×Km substrate was prepared from Ac-LRSR-AMC Peptide (50 μM in a prepared reagent volume of […]) and the reaction buffer (6.965 mL). The 10×Km substrate was prepared from Ac-LRSR-AMC Peptide ([…] in a prepared reagent volume of 196.0 μL) and the reaction buffer (6.804 mL). The reaction was initiated by the addition of substrate working stock (5 μL, 50 μM) to Km plates and the addition of substrate working stock (5 μL 280 μM) to 10×Km plates. The plates were covered and incubated on the bench at room temperature for 90 minutes.
Fluorescence intensity was determined using a CLARIOstar microplate reader (BMG LABTECH) using the optimised AMC mode. Before taking readings, a 70% gain was applied on the neutral control well. Compound data were normalised to % Inhibition and used to plot sigmoidal concentration response curves to yield various parameters including IC50.

With `N#Cc1cc(NC(=O)c2snc(-c3cccc4ncccc34)c2C2CC2)cnc1-n1nccn1` [I-123], the IC50 (as a rule, the concentration at which inhibition is half-maximal) is not above 400 nM.

Compound `Cc1nn(C)cc1-c1nsc(C(=O)Nc2ccnc(C(F)(F)F)c2)c1C1CC1` [I-143, 4-cyclopropyl-3-(1,3-dimethyl-1H-pyrazol-4-yl)-N-(2-(trifluoromethyl)pyridin-4-yl)isothiazole-5-carboxamide] came in with an IC50 not above 400 nM.

Compound `Cn1ccc(-c2nsc(C(=O)Nc3cnc(-n4nccn4)c(C#N)c3)c2C(F)(F)F)cc1=O` [I-128, N-(5-cyano-6-(2H-1,2,3-triazol-2-yl)pyridin-3-yl)-3-(1-methyl-2-oxo-1,2-dihydropyridin-4-yl)-4-(trifluoromethyl)isothiazole-5-carboxamide] displayed an IC50 of more than 2500 nM.

`O=C(Nc1cnc(-n2nccn2)c(Cl)c1)c1nsc(-c2ccccc2)c1C(F)(F)F` [I-57, N-(5-CHLORO-6-(2H-1,2,3-TRIAZOL-2-YL) PYRIDIN-3-YL)-5-PHENYL-4-(TRIFLUOROMETHYL)ISOTHIAZOLE-3-CARBOXAMIDE] had an IC50 not above 400 nM.

Consider `N#Cc1cc(NC(=O)c2snc(-c3cccn4nccc34)c2C2CC2)cnc1-n1nccn1` [I-114], for which the IC50 was not above 400 nM.

The compound `CC(=O)N1CCC(c2nsc(C(=O)Nc3cnc(-n4nccn4)c(C#N)c3)c2C2CC2)CC1` [I-121] had an IC50 of 1000 to 2500 nM.

On to `Cn1cc2cccc(-c3nsc(C(=O)Nc4ccnc(C(F)(F)F)c4)c3C3CC3)c2n1` [I-208, 4-cyclopropyl-3-(2-methyl-2H-indazol-7-yl)-N-(2-(trifluoromethyl)pyridin-4-yl)isothiazole-5-carboxamide], for which the IC50 was 400 to 1000 nM.

Consider `N#Cc1cc(NC(=O)c2snc(-c3ccccc3)c2C2CC2)ccc1C(=O)N1CC(O)C1` [I-32], for which the IC50 is not above 400 nM.

`CN(C)C(=O)c1ccc(NC(=O)c2snc(-c3ccccc3)c2C2CC2)cc1Cl` [I-21, N-(3-CHLORO-4-(DIMETHYLCARBAMOYL) PHENYL)-4-CYCLOPROPYL-3-PHENYLISOTHIAZOLE-5-CARBOXAMIDE] came in with an IC50 not above 400 nM.

Compound `Cn1nnc2cccc(-c3nsc(C(=O)Nc4cnc(-n5nccn5)c(C#N)c4)c3C3CC3)c21` [I-120] returned an IC50 not above 400 nM.

Compound `O=C(Nc1ccnc(C(F)(F)F)c1)c1snc([C@H]2CCOC2)c1C1CC1` [I-205, (R)-4-cyclopropyl-3-(tetrahydrofuran-3-yl)-N-(2-(trifluoromethyl)pyridin-4-yl)isothiazole-5-carboxamide] displayed an IC50 of 1000 to 2500 nM.

For the compound `O=C(Nc1cnc(-n2nccn2)c(Cl)c1)c1snc(-c2cccc3ncccc23)c1C1CC1` [I-118], the IC50 was not above 400 nM.

In turn, `O=C(Nc1ccnc(C(F)(F)F)c1)c1snc(-c2cccn3nccc23)c1C1CC1` [I-210, 4-cyclopropyl-3-(pyrazolo[1,5-a]pyridine-4-yl)-N-(2-(trifluoromethyl)pyridine-4-yl)isothiazole-5-carboxamide] gave an IC50 not above 400 nM.

The compound `Cc1ccccc1-c1nsc(C(=O)Nc2ccnc(C(F)(F)F)c2)c1C1CC1` [I-160, 4-cyclopropyl-3-(2-methylphenyl)-N-[2-(trifluoromethyl)pyridin-4-yl]-1,2-thiazole-5-carboxamide] came in with an IC50 not above 400 nM.

The compound `O=C(Nc1cncc(F)c1)c1snc(-c2ccccc2)c1C1CC1` [I-43, 4-CYCLOPROPYL-N-(5-FLUOROPYRIDIN-3-YL)-3-PHENYLISOTHIAZOLE-5-CARBOXAMIDE] gave an IC50 of more than 2500 nM.

For `Cn1ncc2cc(-c3nsc(C(=O)Nc4ccnc(C(F)(F)F)c4)c3C3CC3)ccc21` [I-168, 4-cyclopropyl-3-(1-methyl-1H-indazol-5-yl)-N-(2-(trifluoromethyl)pyridin-4-yl)isothiazole-5-carboxamide], the IC50 lay in the range of 400 to 1000 nM.

`Cc1cncc(NC(=O)c2snc(-c3ccccc3)c2C2CC2)c1` [I-45, 4-CYCLOPROPYL-N-(5-METHYLPYRIDIN-3-YL)-3-PHENYLISOTHIAZOLE-5-CARBOXAMIDE]: the IC50 lay in the range of 1000 to 2500 nM.

In the case of `Cn1cc2c(-c3nsc(C(=O)Nc4cnc(-n5nccn5)c(C#N)c4)c3C3CC3)cccc2n1` [I-206, N-(5-cyano-6-(2H-1,2,3-triazol-2-yl)pyridin-3-yl)-4-cyclopropyl-3-(2-methyl-2H-indazol-4-yl)isothiazole-5-carboxamide], the IC50 was not above 400 nM.

On to `O=C(Nc1ccnc(C(F)(F)F)c1)c1snc(-c2cccc(F)c2)c1C1CC1` [I-195, 4-cyclopropyl-3-(3-fluorophenyl)-N-[2-(trifluoromethyl)pyridin-4-yl]-1,2-thiazole-5-carboxamide], for which the IC50 was not above 400 nM.

`CN(C)c1ccc(-c2nsc(C(=O)Nc3ccnc(C(F)(F)F)c3)c2C2CC2)cc1` [I-145, 4-cyclopropyl-3-[4-(dimethylamino)phenyl]-N-[2-(trifluoromethyl)pyridine-4-yl]-1,2-thiazole-5-carboxamide] yielded a 50% inhibitory concentration (IC50) of more than 2500 nM.

`N#Cc1cc(NC(=O)c2snc(-c3ncccc3Cl)c2C(F)(F)F)cnc1-n1nccn1` [I-20, 3-(3-CHLOROPYRIDIN-2-YL)-N-(5-CYANO-6-(2H-1,2,3-TRIAZOL-2-YL)PYRIDIN-3-YL)-4-(TRIFLUOROMETHYL)ISOTHIAZOLE-5-CARBOXAMIDE] returned an IC50 not above 400 nM.

`Cc1cc(NC(=O)c2snc(-c3ccccc3)c2C2CC2)cn(C)c1=O` [I-41] had an IC50 of more than 2500 nM.

In turn, `N#Cc1cc(NC(=O)c2snc(-c3ccccc3)c2C2(O)COC2)cnc1-n1nccn1` [I-61] had a 50% inhibitory concentration (IC50) of more than 2500 nM.

In turn, `COc1nccc2c(-c3nsc(C(=O)Nc4cnc(-n5nccn5)c(Cl)c4)c3C(F)(F)F)cccc12` [I-106] came in with an IC50 not above 400 nM.

On to `O=C(Nc1ccnc(C(F)(F)F)c1)c1snc(-c2ccc3nccn3c2)c1C1CC1` [I-186, 4-cyclopropyl-3-{imidazo[1,2-a]pyridin-6-yl}-N-[2-(trifluoromethyl)pyridin-4-yl]-1,2-thiazole-5-carboxamide], for which the IC50 was not above 400 nM.

`O=C(Nc1ccnc(C(F)(F)F)c1)c1snc(-c2cccc3[nH]ncc23)c1C1CC1` [I-182, 4-cyclopropyl-3-(1H-indazol-4-yl)-N-(2-(trifluoromethyl)pyridin-4-yl)isothiazole-5-carboxamide] registered a half-inhibitory concentration (IC50) not above 400 nM.

Take `CN(C)c1ccc(NC(=O)c2snc(-c3ccccc3)c2C2CC2)cn1` [I-46, 4-CYCLOPROPYL-N-(6-(DIMETHYLAMINO) PYRIDIN-3-YL)-3-PHENYLISOTHIAZOLE-5-CARBOXAMIDE]: the IC50 is more than 2500 nM.
